Here are results for 15 molecules from ChEMBL document CHEMBL1128059, “Kelatorphan and related analogs: potent and selective inhibitors of leukotriene A4 hydrolase” (Bioorg Med Chem Lett, 1995).

Experiment [1] can be described thus: Inhibitory activity against aminopeptidase.
For experiment [2], the target named is T1, Angiotensin-converting enzyme (Oryctolagus cuniculus, UniProt P12822).
T1 sequence (P12822 whole entry): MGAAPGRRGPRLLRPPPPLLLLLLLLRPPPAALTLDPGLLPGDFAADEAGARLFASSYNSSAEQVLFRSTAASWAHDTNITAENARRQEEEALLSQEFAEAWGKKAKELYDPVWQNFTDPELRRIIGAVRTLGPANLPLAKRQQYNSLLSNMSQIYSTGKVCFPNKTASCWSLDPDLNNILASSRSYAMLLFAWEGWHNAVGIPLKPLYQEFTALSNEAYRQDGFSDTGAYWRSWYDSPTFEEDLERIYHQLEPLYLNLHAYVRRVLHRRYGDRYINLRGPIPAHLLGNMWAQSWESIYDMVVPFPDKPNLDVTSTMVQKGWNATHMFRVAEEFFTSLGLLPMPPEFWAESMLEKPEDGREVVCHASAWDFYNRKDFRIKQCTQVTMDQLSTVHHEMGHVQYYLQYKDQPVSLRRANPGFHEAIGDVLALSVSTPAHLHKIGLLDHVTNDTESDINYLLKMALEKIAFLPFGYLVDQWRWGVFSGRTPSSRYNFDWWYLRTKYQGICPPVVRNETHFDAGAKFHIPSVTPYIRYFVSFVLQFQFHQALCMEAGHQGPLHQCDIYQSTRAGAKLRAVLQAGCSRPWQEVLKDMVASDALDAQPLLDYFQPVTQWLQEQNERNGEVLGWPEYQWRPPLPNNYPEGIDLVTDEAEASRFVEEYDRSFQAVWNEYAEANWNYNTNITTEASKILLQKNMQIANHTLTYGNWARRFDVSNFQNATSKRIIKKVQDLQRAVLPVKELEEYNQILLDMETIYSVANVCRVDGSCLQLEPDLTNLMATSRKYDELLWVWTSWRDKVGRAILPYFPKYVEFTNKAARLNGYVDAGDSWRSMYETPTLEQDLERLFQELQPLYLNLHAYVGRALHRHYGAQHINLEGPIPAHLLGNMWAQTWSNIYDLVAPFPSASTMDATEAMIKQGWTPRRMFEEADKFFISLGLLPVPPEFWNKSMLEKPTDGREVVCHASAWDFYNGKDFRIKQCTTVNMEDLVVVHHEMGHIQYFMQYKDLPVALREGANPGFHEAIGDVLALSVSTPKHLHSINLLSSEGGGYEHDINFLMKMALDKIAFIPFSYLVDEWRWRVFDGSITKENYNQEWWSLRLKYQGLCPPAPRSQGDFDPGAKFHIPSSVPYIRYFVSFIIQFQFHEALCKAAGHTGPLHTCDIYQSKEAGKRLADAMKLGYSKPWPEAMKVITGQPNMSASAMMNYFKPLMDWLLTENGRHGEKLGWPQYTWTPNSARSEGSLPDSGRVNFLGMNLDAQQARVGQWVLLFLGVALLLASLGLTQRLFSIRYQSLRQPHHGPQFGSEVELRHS
Put plainly: Inhibitory activity against rabbit lung angiotensin-converting enzyme (ACE).

Experiment [3] deals with T2, Leukotriene A-4 hydrolase (Homo sapiens, UniProt P09960).
T2 sequence (P09960 whole entry): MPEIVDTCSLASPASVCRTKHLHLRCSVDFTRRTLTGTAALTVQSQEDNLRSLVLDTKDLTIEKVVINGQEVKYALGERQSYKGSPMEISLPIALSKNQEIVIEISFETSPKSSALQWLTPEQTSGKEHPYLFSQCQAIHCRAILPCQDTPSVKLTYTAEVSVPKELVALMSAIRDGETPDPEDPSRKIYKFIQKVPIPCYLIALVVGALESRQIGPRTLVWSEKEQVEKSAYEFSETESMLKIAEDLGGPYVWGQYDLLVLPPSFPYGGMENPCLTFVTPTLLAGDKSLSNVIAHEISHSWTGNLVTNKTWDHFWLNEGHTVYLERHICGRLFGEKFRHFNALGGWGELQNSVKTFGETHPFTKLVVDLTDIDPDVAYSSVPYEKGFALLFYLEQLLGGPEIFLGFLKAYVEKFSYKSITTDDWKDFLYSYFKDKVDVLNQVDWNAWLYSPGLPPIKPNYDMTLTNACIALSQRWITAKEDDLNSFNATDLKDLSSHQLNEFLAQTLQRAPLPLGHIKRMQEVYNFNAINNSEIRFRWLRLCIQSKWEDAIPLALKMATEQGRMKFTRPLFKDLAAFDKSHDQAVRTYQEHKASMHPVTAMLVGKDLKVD
As to the kind of experiment: Inhibitory activity against recombinant human Leukotriene A4 hydrolase.

The next experiment has as its target T3, Neprilysin (Oryctolagus cuniculus, UniProt P08049).
T3 sequence (P08049 whole entry): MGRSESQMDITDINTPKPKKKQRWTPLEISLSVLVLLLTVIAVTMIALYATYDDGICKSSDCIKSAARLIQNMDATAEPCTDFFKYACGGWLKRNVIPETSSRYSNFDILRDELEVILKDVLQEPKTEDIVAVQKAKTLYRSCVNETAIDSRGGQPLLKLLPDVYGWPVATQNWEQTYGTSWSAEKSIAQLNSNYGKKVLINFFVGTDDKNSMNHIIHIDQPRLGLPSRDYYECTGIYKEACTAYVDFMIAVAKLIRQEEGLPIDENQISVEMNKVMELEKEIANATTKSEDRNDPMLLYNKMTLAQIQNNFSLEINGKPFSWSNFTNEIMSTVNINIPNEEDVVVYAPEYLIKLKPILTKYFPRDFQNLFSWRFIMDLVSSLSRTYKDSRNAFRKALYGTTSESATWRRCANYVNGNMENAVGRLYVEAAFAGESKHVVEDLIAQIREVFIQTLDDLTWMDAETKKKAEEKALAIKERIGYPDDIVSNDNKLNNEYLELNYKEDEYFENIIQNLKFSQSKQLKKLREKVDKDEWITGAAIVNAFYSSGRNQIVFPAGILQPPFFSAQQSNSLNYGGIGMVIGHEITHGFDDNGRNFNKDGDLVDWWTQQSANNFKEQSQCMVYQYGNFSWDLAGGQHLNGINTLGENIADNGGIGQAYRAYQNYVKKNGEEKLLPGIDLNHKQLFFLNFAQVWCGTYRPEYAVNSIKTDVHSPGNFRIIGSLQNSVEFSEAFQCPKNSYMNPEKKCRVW
As to the kind of experiment: Inhibitory activity against rabbit kidney neutral endopeptidase (NEP).

Experiment [4] has as its target T1, Angiotensin-converting enzyme. Put plainly: Inhibitory activity against rabbit lung angiotensin-converting enzyme(ACE).
Experiment [5] has as its target T2, Leukotriene A-4 hydrolase. As to the kind of experiment: Inhibitory activity against LTA 4 hydrolase in aminopeptidase assay.
Experiment [6] addresses T2, Leukotriene A-4 hydrolase. Put plainly: Inhibitory activity against LTA 4 hydrolase in epoxide hydrolase assay.

As for `O=C(C[C@@H](Cc1ccccc1)C(=O)N1CCC[C@@H]1C(=O)O)NO`, the results for the IC50 in experiment [1], in experiment [2] and in experiment [3] were 15 µM, above 100 µM and 20 µM, respectively.

In the case of `C[C@H](NC(=O)[C@@H](CCS)CC1CCCCC1)C(=O)O`, the half-maximal inhibitory concentration (IC50) (in general, the concentration that gives 50% inhibition) in experiment [3] was above 3 µM; at Neprilysin, above 100 µM.

In the case of `C[C@H](NC(=O)[C@@H](CC(=O)NO)CC1CCCCC1)C(=O)O`, the IC50 in experiment [1] was 0.01 µM; in experiment [4] it was above 100 µM; in experiment [3], 0.005 µM; at Neprilysin, 2 µM.

Take `O=C(C[C@@H](Cc1ccccc1)C(=O)N1CCCC[C@H]1C(=O)O)NO`: the IC50 stood at 0.01 µM in experiment [1], 40 µM in experiment [4], 0.008 µM in experiment [3] and 17 µM at Neprilysin.

`O=C(C[C@@H](Cc1ccccc1)C(=O)N[C@@H](Cc1c[nH]c2ccccc12)C(=O)O)NO`: the IC50 in experiment [1] is 0.005 µM; in experiment [3], 0.01 µM.

Regarding `C[C@H](NC(=O)[C@@H](CCC(=O)NO)Cc1ccccc1)C(=O)O`, the IC50 was 20 µM in experiment [4] and above 10 µM in experiment [3].

Consider `C[C@H](NC(=O)[C@@H](CC(=O)O)Cc1ccccc1)C(=O)O`, for which the results for the IC50 in experiment [1], in experiment [4] and in experiment [3] were 0.14 µM, above 100 µM and 0.3 µM, respectively.

Turning to `O=C(C[C@@H](Cc1ccccc1)C(=O)N[C@@H](CC1CCCCC1)C(=O)O)NO`, the IC50 was 0.042 µM in experiment [1], above 100 µM in experiment [4], 0.01 µM in experiment [3] and 104 µM on Neprilysin.

`CSCC[C@@H](NC(=O)[C@@H](CC(=O)NO)Cc1ccccc1)C(=O)O`: the IC50 in experiment [1] came to 0.002 µM; in experiment [4], 20 µM; in experiment [3], 0.012 µM; on Neprilysin, 61 µM.

With `O=C(C[C@@H](Cc1ccccc1)C(=O)N1CCC[C@H]1C(=O)O)NO`, the IC50 in experiment [1] was 0.018 µM; in experiment [2], 3 µM; in experiment [3], 0.03 µM; against Neprilysin, above 36 µM.

As for `O=C(C[C@@H](Cc1ccccc1)C(=O)N1CCCC[C@@H]1C(=O)O)NO`, the half-maximal inhibitory concentration (IC50) in experiment [1] is 2.3 µM; in experiment [4] it was above 100 µM; in experiment [3], 1.8 µM.

In the case of `C[C@H](NC(=O)C(CS)Cc1ccccc1)C(=O)O` (stereo not given in full), the IC50 was above 10 µM in experiment [1], 0.2 µM in experiment [4] and above 3 µM in experiment [3].

As to `C[C@@H](C(=O)O)N(C)C(=O)[C@@H](CC(=O)NO)Cc1ccccc1`, the IC50 in experiment [1] was 0.001 µM; in experiment [4], above 100 µM; in experiment [3] it was 0.003 µM; on Neprilysin, 3.4 µM.

On to `C[C@H](CS)C(=O)N1CCC[C@H]1C(=O)O` [CAPTOPRIL], for which the IC50 in experiment [1] stood at 2 µM; in experiment [3], 10 µM.

As for `C[C@H](NC(=O)[C@@H](CC(=O)NO)Cc1ccccc1)C(=O)O` [KELATORPHAN], the IC50 in experiment [1] is 0.007 µM; in experiment [2] it was above 10 µM; in experiment [3], 0.005 µM; on Neprilysin it was 0.046 µM. In addition, the Ki (as a rule, the equilibrium dissociation constant of an inhibitor or competing ligand from its target) in experiment [5] is 0.01 µM; in experiment [6], 0.018 µM.
